# Measurements: PubChem BioAssay (NCI)
#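 How tested: cells in 96-well plates exposed to compound for 48 hours at five concentrations. The concentration for 50% growth inhibition is given as GI50. At the TGI there is no net growth.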
# Assays:
# Assay in all cases: NCI tumour cell line growth inhibition, 48 h
# [1] = test system: SN12C renal
# [2] = test system: OVCAR-4 ovarian
# [3] = test system: LOX IMVI melanoma
# [4] = test system: K-562 leukemia
# [5] = test system: U251 CNS
# [6] = test system: RXF 393 renal
# [7] = test system: HCT-116 colon
# [8] = test system: ACHN renal
# [9] = test system: MDA-MB-231 breast
# [10] = test system: NCI-H522 lung
# [11] = test system: NCI-H23 lung
# [12] = test system: T-47D breast
# [13] = test system: A498 renal
# [14] = test system: TK-10 renal
# [15] = test system: CAKI-1 renal
# [16] = test system: HOP-62 NSCLC
# [17] = test system: IGROV1 ovarian
# [18] = test system: A549 NSCLC
# [19] = test system: SK-MEL-5 melanoma
# [20] = test system: BT-549 breast
# [21] = test system: HS 578T breast
# [22] = test system: DU-145 prostate
# [23] = test system: HL-60(TB) leukemia
# [24] = test system: UO-31 renal
# [25] = test system: NCI-H460 lung
# [26] = test system: CCRF-CEM leukemia
# [27] = test system: EKVX NSCLC
# [28] = test system: HOP-92 NSCLC
# [29] = test system: SK-MEL-2 melanoma
# [30] = test system: UACC-62 melanoma
# [31] = test system: 786-0 renal
# [32] = test system: UACC-257 melanoma
# [33] = test system: SK-OV-3 ovarian
# [34] = test system: HT29 colon
# [35] = test system: MOLT-4 leukemia
# [36] = test system: NCI/ADR-RES ovarian
# [37] = test system: COLO 205 colon
# [38] = test system: SNB-19 CNS
# [39] = test system: M14 melanoma
# [40] = test system: PC-3 prostate
# [41] = test system: SW-620 colon
# [42] = test system: HCC-2998 colon
# [43] = test system: HCT-15 colon
# [44] = test system: RPMI-8226 leukemia
# [45] = test system: SF-268 CNS
# [46] = test system: SNB-75 CNS
# [47] = test system: OVCAR-5 ovarian
# [48] = test system: KM12 colon
# [49] = test system: MCF7 breast
# [50] = test system: MALME-3M melanoma
# [51] = test system: OVCAR-8 ovarian
# [52] = test system: SF-295 CNS
# [53] = test system: SK-MEL-28 melanoma
# [54] = test system: SR leukemia
compound,measurement,setting,value
COc1cc(OC)c(/C=C/S(=O)(=O)Cc2ccc(OC)c(NCC(=O)NO)c2)c(OC)c1,GI50,[1],0.0555 µM
same,TGI,[1],> 100 µM
same,GI50,[2],46.1 µM
same,TGI,[2],> 100 µM
same,GI50,[3],< 0.01 µM
same,TGI,[3],> 100 µM
same,GI50,[4],< 0.01 µM
same,TGI,[4],> 100 µM
same,GI50,[5],0.0355 µM
same,TGI,[5],> 100 µM
same,GI50,[6],< 0.011 µM
same,TGI,[6],> 100 µM
same,GI50,[7],0.0198 µM
same,GI50,[8],< 0.0152 µM
same,TGI,[8],> 100 µM
same,GI50,[9],0.0457 µM
same,TGI,[9],> 100 µM
same,GI50,[10],< 0.01 µM
same,GI50,[11],0.0414 µM
same,TGI,[11],> 100 µM
same,GI50,[12],17.8 µM
same,TGI,[12],> 100 µM
same,GI50,[13],< 0.01 µM
same,TGI,[13],0.101 µM
same,GI50,[14],> 100 µM
same,TGI,[14],> 100 µM
same,GI50,[15],< 0.01 µM
same,TGI,[15],> 100 µM
same,GI50,[16],0.0472 µM
same,TGI,[16],> 100 µM
same,GI50,[17],0.0241 µM
same,TGI,[17],> 100 µM
same,GI50,[18],0.0364 µM
same,TGI,[18],> 100 µM
same,GI50,[19],0.0185 µM
same,TGI,[19],0.182 µM
same,GI50,[20],0.0221 µM
same,GI50,[21],< 0.0142 µM
same,TGI,[21],> 100 µM
same,GI50,[22],0.0395 µM
same,TGI,[22],> 100 µM
same,GI50,[23],0.0191 µM
same,TGI,[23],0.0593 µM
same,GI50,[24],0.0723 µM
same,TGI,[24],> 100 µM
same,GI50,[25],0.0256 µM
same,TGI,[25],> 100 µM
same,GI50,[26],0.041 µM
same,TGI,[26],> 100 µM
same,GI50,[27],0.058 µM
same,TGI,[27],> 100 µM
same,GI50,[28],0.0777 µM
same,TGI,[28],> 100 µM
same,GI50,[29],> 100 µM
same,TGI,[29],> 100 µM
same,GI50,[30],< 0.01 µM
same,TGI,[30],> 100 µM
same,GI50,[31],0.0409 µM
same,TGI,[31],> 100 µM
same,GI50,[32],> 100 µM
same,TGI,[32],> 100 µM
same,GI50,[33],0.0697 µM
same,TGI,[33],> 100 µM
same,GI50,[34],0.0368 µM
same,TGI,[34],4.84 µM
same,GI50,[35],0.0415 µM
same,TGI,[35],> 100 µM
same,GI50,[36],< 0.01 µM
same,TGI,[36],> 100 µM
same,GI50,[37],0.0316 µM
same,TGI,[37],0.119 µM
same,GI50,[38],0.0434 µM
same,TGI,[38],> 100 µM
same,GI50,[39],0.022 µM
same,TGI,[39],> 100 µM
same,GI50,[40],0.0285 µM
same,TGI,[40],> 100 µM
same,GI50,[41],0.0279 µM
same,TGI,[41],> 100 µM
same,GI50,[42],0.0346 µM
same,TGI,[42],> 100 µM
same,GI50,[43],0.0131 µM
same,TGI,[43],> 100 µM
same,GI50,[44],0.045 µM
same,TGI,[44],> 100 µM
same,GI50,[45],0.0863 µM
same,TGI,[45],> 100 µM
same,GI50,[46],< 0.01 µM
same,TGI,[46],0.0726 µM
same,GI50,[47],0.0535 µM
same,TGI,[47],> 100 µM
same,GI50,[48],0.0105 µM
same,TGI,[48],> 100 µM
same,GI50,[49],0.0142 µM
same,TGI,[49],> 100 µM
same,GI50,[50],> 100 µM
same,TGI,[50],> 100 µM
same,GI50,[51],0.0356 µM
same,TGI,[51],> 100 µM
same,GI50,[52],< 0.01 µM
same,TGI,[52],> 100 µM
same,GI50,[53],> 23.7 µM
same,TGI,[53],> 100 µM
same,GI50,[54],< 0.0104 µM
same,TGI,[54],> 100 µM
